Drawing on ChEMBL document CHEMBL1770059, “Identification of chemicals to inhibit the kinase activity of leucine-rich repeat kinase 2 (LRRK2), a Parkinson's disease-associated protein” (Bioorg Med Chem Lett, 2011), this text covers IC50, Activity and viability for 1 molecule.

For data set [1], the target named is Leucine-rich repeat serine/threonine-protein kinase 2 (Homo sapiens, UniProt Q5S007, G2019S). In words: Inhibition of purified N-terminal GST-tagged LRRK2 G2019S mutant autophosphorylation activity using myelin basic protein as substrate.
In data set [2] the test system is Leucine-rich repeat serine/threonine-protein kinase 2 (Homo sapiens), Q5S007 [G2019S]. In words: Inhibition of purified N-terminal GST-tagged LRRK2 G2019S mutant assessed as residual activity of enzyme at 10 uM.
Data set [3] concerns the target Cyclin-dependent kinase 5/CDK5 activator 1 (Homo sapiens) (UniProt Q00535+Q15078). In words: Inhibition of CDK5/p25 assessed as residual activity of enzyme at 10 uM. The class given is protein-complex assay.
The target in data set [4] is Mitogen-activated protein kinase kinase kinase 9 (Homo sapiens) (UniProt P80192). The experiment in a line: Inhibition of MLK1 assessed as residual activity of enzyme at 10 uM.
The target is the same in data set [5]. In words: Inhibition of MLK1 assessed as residual activity of enzyme at 25 uM.
Data set [6] has as its target Serine/threonine-protein kinase mTOR (Homo sapiens) (UniProt P42345). The experiment in a line: Inhibition of mTOR assessed as residual activity of enzyme at 25 uM.
Data set [7] addresses T1, Mitogen-activated protein kinase kinase kinase 7 (Homo sapiens) (UniProt O43318).
T1 sequence (whole entry): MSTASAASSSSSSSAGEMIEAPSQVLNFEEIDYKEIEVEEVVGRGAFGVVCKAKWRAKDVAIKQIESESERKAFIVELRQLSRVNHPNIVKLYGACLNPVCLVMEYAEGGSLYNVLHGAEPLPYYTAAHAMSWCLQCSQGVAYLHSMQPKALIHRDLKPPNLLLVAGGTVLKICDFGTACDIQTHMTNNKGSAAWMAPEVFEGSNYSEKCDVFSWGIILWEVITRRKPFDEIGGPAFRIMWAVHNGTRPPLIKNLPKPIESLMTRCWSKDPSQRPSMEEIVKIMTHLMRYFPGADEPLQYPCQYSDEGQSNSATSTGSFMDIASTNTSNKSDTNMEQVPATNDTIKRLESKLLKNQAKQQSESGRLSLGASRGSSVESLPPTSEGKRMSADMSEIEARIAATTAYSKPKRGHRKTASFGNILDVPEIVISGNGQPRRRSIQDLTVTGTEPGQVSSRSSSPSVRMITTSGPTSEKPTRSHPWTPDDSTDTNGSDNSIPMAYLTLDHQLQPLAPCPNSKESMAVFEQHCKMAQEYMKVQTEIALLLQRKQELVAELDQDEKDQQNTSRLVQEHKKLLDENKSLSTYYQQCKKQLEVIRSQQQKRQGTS
The experiment in a line: Inhibition of TAK1 assessed as residual activity of enzyme at 25 uM.

Data set [8] has as its target T2, Serine/threonine-protein kinase TAO1 (Homo sapiens) (UniProt Q7L7X3).
T2 sequence (whole entry): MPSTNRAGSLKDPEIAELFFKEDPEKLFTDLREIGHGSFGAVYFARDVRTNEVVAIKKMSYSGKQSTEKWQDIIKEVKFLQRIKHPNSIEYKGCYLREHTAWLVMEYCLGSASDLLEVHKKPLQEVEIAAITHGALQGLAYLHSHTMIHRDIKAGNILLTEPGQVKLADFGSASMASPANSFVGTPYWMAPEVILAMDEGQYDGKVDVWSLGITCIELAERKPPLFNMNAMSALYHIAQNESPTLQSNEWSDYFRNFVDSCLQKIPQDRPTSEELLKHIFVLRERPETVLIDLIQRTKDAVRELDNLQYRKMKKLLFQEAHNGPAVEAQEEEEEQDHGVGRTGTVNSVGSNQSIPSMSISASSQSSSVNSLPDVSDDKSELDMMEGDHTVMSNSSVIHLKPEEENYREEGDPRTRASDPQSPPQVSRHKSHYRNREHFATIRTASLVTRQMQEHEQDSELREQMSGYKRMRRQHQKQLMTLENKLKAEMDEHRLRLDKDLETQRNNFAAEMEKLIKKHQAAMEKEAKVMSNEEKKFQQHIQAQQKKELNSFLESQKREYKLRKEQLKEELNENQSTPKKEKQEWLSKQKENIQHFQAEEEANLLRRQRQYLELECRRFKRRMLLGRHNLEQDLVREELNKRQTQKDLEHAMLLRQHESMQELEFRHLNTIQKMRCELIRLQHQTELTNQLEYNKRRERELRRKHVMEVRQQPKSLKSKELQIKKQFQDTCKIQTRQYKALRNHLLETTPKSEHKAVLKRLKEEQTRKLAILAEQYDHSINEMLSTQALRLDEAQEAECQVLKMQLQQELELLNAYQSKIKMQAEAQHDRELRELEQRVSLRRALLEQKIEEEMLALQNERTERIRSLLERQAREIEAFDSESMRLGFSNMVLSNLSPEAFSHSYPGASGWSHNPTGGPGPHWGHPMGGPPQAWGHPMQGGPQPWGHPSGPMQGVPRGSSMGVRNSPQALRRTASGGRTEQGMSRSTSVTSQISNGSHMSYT
In words: Inhibition of TAO1 assessed as residual activity of enzyme at 10 uM.

The target in data set [9] is T2, Serine/threonine-protein kinase TAO1 (Homo sapiens). The experiment in a line: Inhibition of TAO1 assessed as residual activity of enzyme at 25 uM.
Data set [10] is described as follows: Neurotoxicity in rat primary cortical neurons assessed as cell survival at 10 uM after 24 hrs by MTT assay. The conditions noted are these: read-out: Activity. The class given is toxicity, cell-based, Cerebral cortex neuron.

Structures are written as SMILES. pIC50: −log10 of the molar value.

Chain of Mitogen-activated protein kinase kinase kinase 9 (Homo sapiens) (P80192 whole entry, looked up): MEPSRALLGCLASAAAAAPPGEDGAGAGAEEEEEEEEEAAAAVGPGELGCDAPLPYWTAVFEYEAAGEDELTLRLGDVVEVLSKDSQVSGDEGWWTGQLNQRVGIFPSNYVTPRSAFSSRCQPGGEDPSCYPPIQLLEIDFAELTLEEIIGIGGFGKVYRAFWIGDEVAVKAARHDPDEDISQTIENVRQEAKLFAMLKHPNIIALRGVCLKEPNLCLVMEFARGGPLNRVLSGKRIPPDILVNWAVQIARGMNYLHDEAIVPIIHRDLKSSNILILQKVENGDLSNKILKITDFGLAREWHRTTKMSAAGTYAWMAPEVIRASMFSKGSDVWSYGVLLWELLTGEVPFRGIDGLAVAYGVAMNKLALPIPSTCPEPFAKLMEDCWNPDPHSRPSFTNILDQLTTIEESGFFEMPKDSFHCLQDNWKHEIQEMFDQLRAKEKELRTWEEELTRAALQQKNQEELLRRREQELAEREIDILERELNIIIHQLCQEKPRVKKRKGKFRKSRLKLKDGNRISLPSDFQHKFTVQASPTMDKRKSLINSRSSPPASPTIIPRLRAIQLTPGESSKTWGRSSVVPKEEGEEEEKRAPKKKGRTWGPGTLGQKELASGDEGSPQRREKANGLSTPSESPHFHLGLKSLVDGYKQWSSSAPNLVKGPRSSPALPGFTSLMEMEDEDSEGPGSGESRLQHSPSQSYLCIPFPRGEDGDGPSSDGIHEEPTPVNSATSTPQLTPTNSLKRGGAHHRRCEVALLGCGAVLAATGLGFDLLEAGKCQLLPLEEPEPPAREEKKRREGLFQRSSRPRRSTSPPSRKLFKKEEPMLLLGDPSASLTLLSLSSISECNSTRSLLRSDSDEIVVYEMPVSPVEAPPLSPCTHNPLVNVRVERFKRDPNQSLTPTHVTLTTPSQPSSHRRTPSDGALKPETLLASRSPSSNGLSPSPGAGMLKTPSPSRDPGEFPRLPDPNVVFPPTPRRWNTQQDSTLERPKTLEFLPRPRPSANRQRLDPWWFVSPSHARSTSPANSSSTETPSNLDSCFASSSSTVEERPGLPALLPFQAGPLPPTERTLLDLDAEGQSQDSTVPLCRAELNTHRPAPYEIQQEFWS
Chain of Leucine-rich repeat serine/threonine-protein kinase 2 (Q5S007 whole entry G2019S): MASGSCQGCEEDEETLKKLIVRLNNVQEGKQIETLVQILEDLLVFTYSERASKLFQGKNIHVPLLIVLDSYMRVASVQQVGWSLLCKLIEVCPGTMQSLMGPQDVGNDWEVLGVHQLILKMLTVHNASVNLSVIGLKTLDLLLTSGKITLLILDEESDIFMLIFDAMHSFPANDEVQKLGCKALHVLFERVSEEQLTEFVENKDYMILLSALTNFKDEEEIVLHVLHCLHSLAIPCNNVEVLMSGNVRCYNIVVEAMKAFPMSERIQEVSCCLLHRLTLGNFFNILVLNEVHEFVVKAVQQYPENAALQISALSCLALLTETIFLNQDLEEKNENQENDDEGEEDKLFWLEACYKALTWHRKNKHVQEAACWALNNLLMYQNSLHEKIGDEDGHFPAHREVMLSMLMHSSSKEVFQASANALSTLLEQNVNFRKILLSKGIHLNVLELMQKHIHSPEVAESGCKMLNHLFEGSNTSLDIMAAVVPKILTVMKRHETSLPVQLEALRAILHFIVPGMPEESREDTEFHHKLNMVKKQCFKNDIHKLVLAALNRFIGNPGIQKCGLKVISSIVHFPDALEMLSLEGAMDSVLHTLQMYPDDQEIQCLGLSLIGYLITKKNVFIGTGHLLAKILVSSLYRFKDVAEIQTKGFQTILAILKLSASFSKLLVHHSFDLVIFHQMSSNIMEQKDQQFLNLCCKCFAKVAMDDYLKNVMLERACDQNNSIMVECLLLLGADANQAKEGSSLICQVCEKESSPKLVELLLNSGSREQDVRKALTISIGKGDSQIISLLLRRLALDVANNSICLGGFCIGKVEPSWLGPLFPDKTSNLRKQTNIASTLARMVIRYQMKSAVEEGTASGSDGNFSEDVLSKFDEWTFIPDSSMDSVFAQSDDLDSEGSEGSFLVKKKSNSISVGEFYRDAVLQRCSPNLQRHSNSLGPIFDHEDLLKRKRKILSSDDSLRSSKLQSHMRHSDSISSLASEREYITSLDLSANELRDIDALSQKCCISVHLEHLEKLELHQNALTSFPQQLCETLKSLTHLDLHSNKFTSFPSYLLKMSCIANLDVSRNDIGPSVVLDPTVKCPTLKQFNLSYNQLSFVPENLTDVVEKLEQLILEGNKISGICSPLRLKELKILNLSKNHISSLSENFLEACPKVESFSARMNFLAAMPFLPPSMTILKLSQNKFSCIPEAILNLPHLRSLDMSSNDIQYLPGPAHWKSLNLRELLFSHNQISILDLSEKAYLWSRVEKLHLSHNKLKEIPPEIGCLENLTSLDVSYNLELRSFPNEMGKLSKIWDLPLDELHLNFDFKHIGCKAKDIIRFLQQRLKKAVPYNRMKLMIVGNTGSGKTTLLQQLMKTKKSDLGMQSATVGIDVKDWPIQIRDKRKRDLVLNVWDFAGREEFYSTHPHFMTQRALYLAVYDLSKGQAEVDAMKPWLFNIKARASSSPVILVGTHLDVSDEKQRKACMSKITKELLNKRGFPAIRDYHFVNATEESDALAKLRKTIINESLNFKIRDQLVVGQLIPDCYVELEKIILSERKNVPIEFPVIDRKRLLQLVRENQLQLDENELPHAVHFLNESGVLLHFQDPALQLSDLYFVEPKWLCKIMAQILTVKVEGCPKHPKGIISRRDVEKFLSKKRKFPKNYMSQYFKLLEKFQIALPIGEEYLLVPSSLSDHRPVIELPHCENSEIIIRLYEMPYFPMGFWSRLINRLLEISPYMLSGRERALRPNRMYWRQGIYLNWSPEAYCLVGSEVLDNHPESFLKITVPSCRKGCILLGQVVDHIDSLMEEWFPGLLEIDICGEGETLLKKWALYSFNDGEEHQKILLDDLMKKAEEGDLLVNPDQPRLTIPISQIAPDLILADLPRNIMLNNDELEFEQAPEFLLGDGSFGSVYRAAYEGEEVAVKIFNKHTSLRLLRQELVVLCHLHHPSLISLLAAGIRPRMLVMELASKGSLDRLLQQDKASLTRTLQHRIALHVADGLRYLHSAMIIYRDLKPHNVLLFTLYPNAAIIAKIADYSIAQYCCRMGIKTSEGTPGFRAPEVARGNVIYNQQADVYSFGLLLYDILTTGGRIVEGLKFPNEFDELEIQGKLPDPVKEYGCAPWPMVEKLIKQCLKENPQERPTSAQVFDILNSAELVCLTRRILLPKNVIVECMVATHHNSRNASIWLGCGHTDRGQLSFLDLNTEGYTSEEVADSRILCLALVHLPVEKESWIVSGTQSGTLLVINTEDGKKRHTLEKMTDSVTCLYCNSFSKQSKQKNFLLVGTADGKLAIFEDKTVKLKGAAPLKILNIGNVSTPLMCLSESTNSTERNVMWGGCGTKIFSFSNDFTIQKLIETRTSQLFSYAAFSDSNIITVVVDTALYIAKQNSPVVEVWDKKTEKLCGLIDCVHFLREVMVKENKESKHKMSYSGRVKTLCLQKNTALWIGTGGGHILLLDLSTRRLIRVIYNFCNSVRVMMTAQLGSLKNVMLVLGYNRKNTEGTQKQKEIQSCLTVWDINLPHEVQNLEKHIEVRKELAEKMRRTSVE
Chain of Leucine-rich repeat serine/threonine-protein kinase 2 (Homo sapiens), Q5S007 [G2019S] (Q5S007 whole entry G2019S): as above
Chain of Cyclin-dependent kinase 5/CDK5 activator 1 (Homo sapiens) (Q00535 whole entry): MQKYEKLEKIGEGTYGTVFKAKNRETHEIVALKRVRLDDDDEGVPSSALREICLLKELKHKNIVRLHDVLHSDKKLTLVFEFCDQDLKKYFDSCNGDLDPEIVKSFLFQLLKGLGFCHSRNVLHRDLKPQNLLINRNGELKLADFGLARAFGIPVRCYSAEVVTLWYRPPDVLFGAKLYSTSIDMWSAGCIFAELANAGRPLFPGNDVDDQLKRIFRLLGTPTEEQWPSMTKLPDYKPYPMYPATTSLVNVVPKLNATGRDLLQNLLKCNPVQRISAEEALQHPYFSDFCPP
Chain of Cyclin-dependent kinase 5/CDK5 activator 1 (Homo sapiens) (Q15078 99-307 partner limits assumed): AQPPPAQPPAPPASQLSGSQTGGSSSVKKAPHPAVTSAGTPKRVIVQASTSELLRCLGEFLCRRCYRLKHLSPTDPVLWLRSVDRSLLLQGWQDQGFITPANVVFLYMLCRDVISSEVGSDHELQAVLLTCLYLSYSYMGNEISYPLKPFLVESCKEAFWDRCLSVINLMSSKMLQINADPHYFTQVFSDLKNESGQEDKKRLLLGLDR

Regarding `Cc1cc(N/N=C/c2ccncc2)nc2ccccc12`, in data set [1], the pIC50 is 5.39. Moreover, the Activity in data set [2] was 28%; in data set [3] it was 97%; in data set [4], 20%; in data set [5] it was 12%; in data set [6], 99%; in [7], 48%. Moreover, the Activity was determined as 88% in [8] and 84% in data set [9]. Moreover, the viability at 24 h, 10 µM in data set [10] stood at 85%.

By pIC50 is commonly meant the negative decadic logarithm of the IC50, by convention in mol/L. Low readings indicate a high IC50, high ones a low IC50.
